target: T1, D-3-phosphoglycerate dehydrogenase (Homo sapiens) (UniProt O43175); assay: Inhibition of N-terminal His6-tagged human liver PHGDH expressed in Escherichia coli Rosetta (DE3)pLysS at 57 uM using 3-phosphoglycerate as substrate after 20 mins in presence of NAD+ by resazurin fluorescence based PSAT1/diaphorase/PSPH coupled enzyme assay
T1 sequence (whole entry): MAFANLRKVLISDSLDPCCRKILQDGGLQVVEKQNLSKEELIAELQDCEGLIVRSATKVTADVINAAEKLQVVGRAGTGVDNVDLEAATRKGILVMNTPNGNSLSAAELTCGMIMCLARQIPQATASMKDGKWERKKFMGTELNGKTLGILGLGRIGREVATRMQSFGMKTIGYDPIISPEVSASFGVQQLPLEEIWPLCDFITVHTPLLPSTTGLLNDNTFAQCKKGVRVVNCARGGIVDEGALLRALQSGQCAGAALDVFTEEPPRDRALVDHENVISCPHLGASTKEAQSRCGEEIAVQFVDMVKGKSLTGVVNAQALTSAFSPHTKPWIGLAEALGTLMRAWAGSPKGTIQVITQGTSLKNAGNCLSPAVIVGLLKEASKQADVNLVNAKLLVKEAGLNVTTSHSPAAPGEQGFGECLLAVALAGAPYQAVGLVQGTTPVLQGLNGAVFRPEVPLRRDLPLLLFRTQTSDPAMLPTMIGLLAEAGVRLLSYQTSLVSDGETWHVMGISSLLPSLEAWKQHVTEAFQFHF

Row | SMILES | inhibition | Imax
1 | Cc1cc(C)nc(NC(=S)NCCNCc2ccc(C(F)(F)F)cc2)c1 | 41% | –
2 | COc1cccc(N2CCN(C(=S)Nc3cc(C)cc(C)n3)CC2)c1 | 101% | –
3 | Cc1ccnc(NC(=S)N2CCN(c3cccc(C(F)(F)F)c3)CC2)n1 | 111% | –
4 | Cc1cc(C)nc(NC(=S)N2CCN(Cc3ccc(C(F)(F)F)cc3)[C@H](C)C2)c1 | 94% | –
5 | Cc1cc(C)nc(NC(=S)N2CCN(c3cccc(C(F)(F)F)c3)CC2)c1 | 92% | –
6 | Cc1cc(C)nc(NC(=S)N2CCN(Cc3ccccc3F)CC2)c1 | 56% | –
7 | Cc1cc(C)nc(NC(=S)N2CCN(c3ccc(C(F)(F)F)cc3)CC2)c1 | 98% | –
8 | FC(F)(F)c1cccc(N2CCN(C(=S)Nc3cc(C(F)(F)F)ccn3)CC2)c1 | 61% | –
9 | Cc1ccnc(CC(=S)N2CCN(c3cccc(C(F)(F)F)c3)CC2)c1 | – | 37%
10 | Cc1cc(C)nc(NC(=S)N2CCN(Cc3ccncc3)CC2)c1 | 67% | –
11 | Cc1ccnc(NC(=N)N2CCN(c3cccc(C(F)(F)F)c3)CC2)c1 | – | 2%
12 | Cc1cc(C)nc(NC(=S)N2CCC(NCc3ccc(C(F)(F)F)cc3)CC2)c1 | 93% | –
13 | Cc1cc(C)nc(NC(=S)N2CCN(c3ccccc3C(F)(F)F)CC2)c1 | 101% | –
14 | Cc1cc(C)nc(NC(=S)N2CCN(Cc3ccc(C(F)(F)F)cc3)CC2)c1 | 96% | –
15 | Cc1cc(C)nc(NC(=S)N2CCN(Cc3cccc(Cl)c3)CC2)c1 | 90% | –
16 | Cc1cc(C)nc(NC(=S)N2CCN(CCc3ccc(C(F)(F)F)cc3)CC2)c1 | 87% | –
17 | Cc1cc(C)nc(NC(=S)N2CCN(Cc3ccc(C(F)(F)F)cc3)C(c3ccccc3)C2)c1 (stereo unspecified) | 111% | –
18 | Cc1cc(C)nc(NC(=S)N2CCN(Cc3ccc(Br)cc3)CC2)c1 | 92% | –
19 | Cc1cc(C)nc(NC(=S)N2CCN(c3cccnc3)CC2)c1 | 68% | –

Row | SMILES | inhibition | Imax
20 | FC(F)(F)c1cccc(N2CCN(C(=S)Nc3ccc4ccccc4n3)CC2)c1 | 90% | –
21 | Cc1ccnc(N(C)C(=S)N2CCN(c3cccc(C(F)(F)F)c3)CC2)c1 | – | 38%
22 | Cc1cccc(NC(=S)N2CCN(c3cccc(C(F)(F)F)c3)CC2)c1 | – | 20%
23 | Cc1cc(C)nc(NC(=S)N2C[C@@H](C)N(Cc3ccc(C(F)(F)F)cc3)[C@@H](C)C2)c1 | – | 16%
24 | Cc1cc(C)nc(NC(=S)N2CCN(Cc3ccc(F)cc3)CC2)c1 | 86% | –
25 | Cc1cc(C)nc(NC(=S)N2CCN(Cc3cccc(F)c3)CC2)c1 | 88% | –
26 | Cc1cc(C)nc(NC(=S)N2CCN(Cc3cccnc3)CC2)c1 | – | 34%
27 | Cc1cc(C)nc(NC(=S)N2CCN(Cc3ccc(C(F)(F)F)cc3)C(C)C2)c1 (stereo unspecified) | 99% | –
28 | Cc1cc(C)nc(NC(=S)N2CCCC(NC(=O)c3ccc(C(F)(F)F)cc3)C2)c1 (stereo unspecified) | 88% | –
29 | Cc1ccnc(NC(=S)N2CCN(c3cccc(C(F)(F)F)c3)CC2)c1 | 92% | –
30 | Cc1cc(C)nc(NC(=S)N2CCN(Cc3ccccn3)CC2)c1 | 51% | –
31 | Cc1cc(C)nc(NC(=S)N2CCN(c3ccccn3)CC2)c1 | 73% | –
32 | Cc1cc(C)nc(NC(=S)N2CCCC(Nc3cccc(C(F)(F)F)c3)C2)c1 (stereo unspecified) | 84% | –
33 | Cc1cc(C)nc(NC(=S)N2CCN(Cc3ccccc3C)CC2)c1 | 85% | –
34 | Cc1cc(C)nc(NC(=S)N2CCC(Nc3cccc(C(F)(F)F)c3)CC2)c1 | 90% | –
35 | COC(=O)c1ccnc(NC(=S)N2CCN(c3cccc(C(F)(F)F)c3)CC2)c1 | 73% | –
36 | Cc1ccnc(NC(=O)N2CCN(c3cccc(C(F)(F)F)c3)CC2)c1 | – | 16%
37 | Cc1cc(C)nc(NC(=S)N2CCCC(NC(=O)c3cccc(C(F)(F)F)c3)C2)c1 (stereo unspecified) | 91% | –

system: not listed separately; assay: Half life in rat liver microsomes at 1 uM at 37 degC in presence of NADPH regeneration system incubated for 15 mins by LC-MS/MS analysis; format: ADME, microsome

Row | SMILES | t1/2
38 | Cc1cc(C)nc(NC(=S)N2CCN(c3cccc(C(F)(F)F)c3)CC2)c1 | > 30 min

target: T2, D-3-phosphoglycerate dehydrogenase (Homo sapiens, UniProt O43175)
T2 sequence (O43175 whole entry): T1 sequence (whole entry)

Row | SMILES | IC50
39 | Cc1cc(C)nc(NC(=S)NCCNCc2ccc(C(F)(F)F)cc2)c1 | 9.7 µM
40 | COc1cccc(N2CCN(C(=S)Nc3cc(C)cc(C)n3)CC2)c1 | 14 µM
41 | Cc1ccnc(NC(=S)N2CCN(c3cccc(C(F)(F)F)c3)CC2)n1 | 37 µM
42 | Cc1cc(C)nc(NC(=S)N2CCN(Cc3ccc(C(F)(F)F)cc3)[C@H](C)C2)c1 | 12 µM
43 | Cc1cc(C)nc(NC(=S)N2CCN(c3cccc(C(F)(F)F)c3)CC2)c1 | 6.3 µM
44 | Cc1cc(C)nc(NC(=S)N2CCN(Cc3ccccc3F)CC2)c1 | 41 µM
45 | Cc1cc(C)nc(NC(=S)N2CCN(c3ccc(C(F)(F)F)cc3)CC2)c1 | 4.3 µM
46 | FC(F)(F)c1cccc(N2CCN(C(=S)Nc3cc(C(F)(F)F)ccn3)CC2)c1 | 6.4 µM
47 | Cc1cc(C)nc(NC(=S)N2CCN(Cc3ccncc3)CC2)c1 | 59 µM
48 | Cc1cc(C)nc(NC(=S)N2CCC(NCc3ccc(C(F)(F)F)cc3)CC2)c1 | 15 µM
49 | Cc1cc(C)nc(NC(=S)N2CCN(c3ccccc3C(F)(F)F)CC2)c1 | 8.7 µM
50 | Cc1cc(C)nc(NC(=S)N2CCN(Cc3cccc(Cl)c3)CC2)c1 | 11 µM
51 | Cc1cc(C)nc(NC(=S)N2CCN(CCc3ccc(C(F)(F)F)cc3)CC2)c1 | 23 µM
52 | Cc1cc(C)nc(NC(=S)N2CCN(Cc3ccc(C(F)(F)F)cc3)C(c3ccccc3)C2)c1 (stereo unspecified) | 31 µM
53 | Cc1cc(C)nc(NC(=S)N2CCN(Cc3ccc(Br)cc3)CC2)c1 | 17 µM
54 | Cc1cc(C)nc(NC(=S)N2CCN(c3cccnc3)CC2)c1 | 50 µM
55 | FC(F)(F)c1cccc(N2CCN(C(=S)Nc3ccc4ccccc4n3)CC2)c1 | 10 µM
56 | Cc1cc(C)nc(NC(=S)N2CCN(Cc3ccc(F)cc3)CC2)c1 | 38 µM
57 | Cc1cc(C)nc(NC(=S)N2CCN(Cc3cccc(F)c3)CC2)c1 | 39 µM
58 | Cc1cc(C)nc(NC(=S)N2CCN(Cc3ccc(C(F)(F)F)cc3)C(C)C2)c1 (stereo unspecified) | 8.3 µM
59 | Cc1cc(C)nc(NC(=S)N2CCCC(NC(=O)c3ccc(C(F)(F)F)cc3)C2)c1 (stereo unspecified) | 8.7 µM
60 | Cc1cc(C)nc(NC(=S)N2CCN(Cc3ccccn3)CC2)c1 | 50 µM
61 | Cc1cc(C)nc(NC(=S)N2CCN(c3ccccn3)CC2)c1 | 37 µM
62 | Cc1cc(C)nc(NC(=S)N2CCCC(Nc3cccc(C(F)(F)F)c3)C2)c1 (stereo unspecified) | 7.2 µM
63 | Cc1cc(C)nc(NC(=S)N2CCN(Cc3ccccc3C)CC2)c1 | 9.2 µM
64 | Cc1cc(C)nc(NC(=S)N2CCC(Nc3cccc(C(F)(F)F)c3)CC2)c1 | 6.5 µM
65 | COC(=O)c1ccnc(NC(=S)N2CCN(c3cccc(C(F)(F)F)c3)CC2)c1 | 13 µM
66 | Cc1cc(C)nc(NC(=S)N2CCCC(NC(=O)c3cccc(C(F)(F)F)c3)C2)c1 (stereo unspecified) | 10 µM

Reference: ChEMBL document CHEMBL4118111, “Discovery and optimization of piperazine-1-thiourea-based human phosphoglycerate dehydrogenase inhibitors” (Bioorg Med Chem, 2018)
